The test system of data set [1] is HEK3, TNF, and IL6 loci. As to the kind of experiment: HACE editing rate and range with helicase and nickase variants (1000 bp window, local rate in 100 bp bins). It counts as cell-based, human. To be noted: nCas9 D10A versus nCas9 H840A. The procedure:
In one embodiment, HACE constructs were tested with different helicase enzymes.
The editing range of different HE constructs was then characterized. For each helicase, nickase, and loci combination, the respective HE, nCas9, and sgRNA combination was transfected into HEK293FT cells, genomic DNA was harvested after three days, and then a 1000 bp window was amplified by PCR for sequencing. The target-strand and non-target strand nickase had similar long range editing performance (FIG. 5C-D, FIG. 10B-C). […] Thus, the nCas9 binding and DNA-sgRNA duplex might obstruct the helicase loading on the non-nicked single-stranded DNA.
In another embodiment, the local average mutation rate was calculated in 100 bp bins for each genomic loci (FIG. 10D). […]
For long amplicon (˜2000 bp) sequencing, the targeted region was amplified using Phusion U Hot Start PCR master mix in a 20 μL reaction. […] The concentration of each sample was measured by Qubit (Thermo Fisher Scientific). […] Sequencing was performed on a NextSeq (Illumina) with paired-end reads (read1,100 bp; index1, 8 bp; index2, 8 bp; read2, 100 bp).
To calculate the mutation rate, it was filtered for base positions with a sequencing coverage of at least 10,000. […] The average G>A editing rate was calculated by extracting all positions where “G” was the reference base, then taking the average of the per base G>A editing rate. […]

Data set [2] relates to HEK293FT cells. The experiment in a line: CellTiter-Glo cell viability after transfection of HACE constructs. The data set is classed as cell-based, human. The procedure: The effects of different HACE constructs on cell viability were then quantified. To do so, the cell viability was quantified using a luciferase-based ATP-assay (CellTiter-Glo) across various helicase constructs both with and without deaminase along with a loci-targeting sgRNA and nCas9 (FIG. 11A).
Cell viability was measured using the CellTiter-Glo Luminescent Cell Viability Assay (Promega) following the manufacturer's protocols. Briefly, HEK293FT cells were seeded at a density of 10,000 cells per 100 μL per well in a 96-well plate in biological triplicates. The following day, cells were transfected with respective HACE plasmids according to the above protocol. Cell viability was measured 72 h after transfection. Luminescence readings were performed using a SpectraMax M5 (Molecular Devices) plate reader.

The test system of data set [3] is double-stranded DNA. To be noted: average base pairs unwound in a single binding event; cited from earlier work.

“BLM: human helicase; in b329, b331 and b335 the HE constructed with it”: the “preference of target and non-target strand nickase” value in data set [1] is “prefer both nickase variants equally”. In addition, the “cell viability (CellTiter-Glo)” value in data set [2] is reported as “did not result in a significant decrease in cell viability”. Further, in data set [3], the processivity range entry was “over 200 base pairs”.

Source of the values: patent US20250346885A1, “SYSTEMS AND METHODS FOR TARGETED CONTINUOUS GENOME MUTAGENESIS” (The Broad Institute, Inc., priority 2023, published 2025).
